Measured values taken from patent US20230390312A1, “NOVEL THERAPEUTIC COMBINATIONS COMPRISING DERIVATIVES OF OXAZAPHOSPHORINES FOR THE TREATMENT OF CANCER” (INSTITUT GUSTAVE ROUSSY, priority 2019, published 2023).
“Also recorded” adds a separate entry of the source. Where two headings read alike, the source gives them in different places.

Tests used:
osteosarcoma = settings: high dose, cumulative dose of 14 000 mg/m^2, cited from earlier work
T cells = format: in vivo, mouse; settings: for T cell counts: tumor-bearing mice
Procedure: (§1) Female C57BL/6 mice of 7 to 8 weeks were randomly assigned to the different treatment groups. […] Both drugs were dissolved in a solution of NaCl 0.9%. […] The administrations were performed by a single i.p. injection with a volume of 20 mL/kg or 10 mL/kg when adding G-IFO groups. Seven days post treatment, the mice were sacrificed, spleens and tumors were collected. After lysis of red blood cells with ammonium chloride splenic viable cells were quantified with Trypan Blue with Vi-CELL XR (Beckman Coulter).
(§2) Briefly, tumor dissociation was done with GentleMACS™ Dissociator after adding ADNase (260913, Millipore) and […] (5401127001, Sigma) to weighed and cut tumors. Tumor cells were incubated for 40 min at 37° C. under stirring and then quantified with Trypan Blue with Vi-CELL XR (Beckman Coulter). Before staining, Fcγ-receptors were blocked for 15 min at 4° C. using anti-CD16/32 functional grade purified antibodies (eBioscience, Paris, France). Cells were incubated for 30 min at 4° C. with antibodies for cell surface staining. For FoxP3 staining, cells were fixed and permeabilized after cell surface staining according to the FoxP3 kit protocol (eBioscience, Paris, France). Samples were acquired on 10-colors Gallios cytometer (Beckman Coulter, Villepinte, France). Analyses were performed using Kaluza software 1.3 (Beckman Coulter). Two different panels were used to identify immune cells. First leucocytes were identified by the use of FITC-conjugated anti-mouse CD45. T and B lymphocytes were identified using APC-Cy7-conjugated anti-mouse CD3 and BV421-conjugated anti-mouse CD19 respectively. CD4^+ and CD8^+ T cells were separated using PE-Cy7-conjugated anti-mouse CD4 and APC-R700-conjugated anti-mouse CD8a staining among CD3 positive cells, respectively. Treg cells were stained using APC-conjugated anti-mouse FoxP3 staining among CD3^+CD4^+ T cells (Table 1).

B cells = format: in vivo, mouse; settings: for B cell depletion in the spleen: FIG. 4, IFO 150 mg/kg, CPA 100 mg/kg, G-IFO eq. 100 or 150 mg/kg, single i.p., 7 days
Procedure: (§3) Female C57BL/6 mice of 7 to 8 weeks were randomly assigned to the different treatment groups. […] Both drugs were dissolved in a solution of NaCl 0.9%. […] Seven days post treatment, the mice were sacrificed, spleens and tumors were collected. After lysis of red blood cells with ammonium chloride splenic viable cells were quantified with Trypan Blue with Vi-CELL XR (Beckman Coulter).
as §2

[1] = tested on: advanced refractory soft tissue; settings: high dose, cumulative dose of 12 000 mg/m2; cited from earlier work
[2] = tested on: MCA205 fibrosarcoma tumor; assay: Antitumor activity of IFO in MCA205-bearing mice depleted in CD4+ and/or CD8+ T cells; format: in vivo, mouse
From the text: (§4) 8·10^5 tumor cells were inoculated subcutaneously (s.c.) in the right flank of C57Bl/6 mice on DO.

[3] = tested on: IFNγ, IL-17A and IL-6 secretion; assay: TCR-driven cytokine release by splenocytes of treated MCA205 tumor-bearing mice; format: in vivo, mouse
Procedure: as §1
(§5) From spleen cell suspension, a total of 2·10^5 cells per well were incubated in 96 well Nunc MaxiSorp® plates (eBioscience) precoated with anti-CD3ε mAbs (clone 145-2C11, 10 μg/mL); eBioscience) and/or anti-CD28 mAbs (clone 37.57, 2 μg/mL; BD Pharmingen). The supernatants were assayed after 48 hours of incubation at 37° C. under 5% CO2 using Cytokine concentrations were quantified in the supernatant using a Bio-Plex™ Mouse Cytokine Standard 23-Plex, Group I Assay (bio rad, M60009RDPD). The panel was comprised of the following cytokines and chemokines: eotaxin, Granulocyte-Colony Stimulating Factor (G-CSF), Granulocyte-Macrophage-Colony Stimulating Factor (GM-CSF), interferon gamma (IFNγ), interleukin (IL)-1α (IL-1α), IL-1β, IL-2, IL-3, IL-4, IL-5, IL-6, IL-9, IL-10, IL-12p40, IL-12p70, IL-13, IL-17A, Keratinocyte Chemoattractant (KC), Macrophage Chemotactic Protein-1 (MCP-1), Macrophage Inflammatory Protein (MIP)-1alpha (MIP-1α), MIP-1β, Regulated on Activation Normal T cell Expressed and Secreted (RANTES) and Tumor Necrosis Factor-alpha (TNF-α). Results were analyzed using Bio-Plex Manager Software V 6.1 (Bio-Rad Laboratories, Hercules, CA, USA). […] These three cytokines were then quantified using mouse IL-17A ELISA Ready-SET-Go® (eBiosciences), Mouse IFNy ELISA Set (BD Biosciences) and Mouse IL-6 ELISA Set (BD Biosciences).

[4] = tested on: IFNγ, IL-17A and IL-6 secretion; assay: TCR-driven cytokine release by splenocytes of treated naive mice; format: in vivo, mouse; settings: CPA 100 mg/kg, IFO 100, 150 and 200 mg/kg, CD3ε+CD28 stimulation
Procedure: as §3, §5

[5] = tested on: MCA205 fibrosarcoma tumor; format: in vivo, mouse; settings: single i.p.
Procedure: 7-8 weeks-old female C57BL/6 mice (mean body weight, 20 g) were purchased from Harlan Laboratories (Gannat, France). Animals were used in pathogen-free conditions. MCA205 fibrosarcoma tumor cell line (syngenic from C57Bl/6 mice) was kindly provided by Dr Yamazaki Takahiro (INSERM U1015, Gustave Roussy, Villejuif, France). They were harvested at 37° C. under 5% CO2 in Gibco™ RPMI 1640 medium (Paisley, UK) supplemented with 10% Fetal Bovine Serum (Paisley, UK) and 2 mM L-glutamine (Invitrogen, USA). All animal experiments were carried out in compliance with French and European laws and regulations and by the CEEA26 Ethic committee and the ministry of national education, higher education and research and carried out under conditions established by the European Community (Directive 2010/63/2015-038).
as §4
Regarding study for combination between chemotherapy (G-IFO) and anti-PD1 mAbs, mice received G-IFO or vehicle on D9 then 200 μg/mouse i.p. injections of anti-PD1 mAbs (clone RMP1-14) or its isotype control Rat IgG2a (clone 2A3) on D12, D15 and D19. Tumor volume was followed-up three times a week by measuring the length and width using a caliper. In order to normalize tumor measurements for each day VTDx to VTDi (VTDx/VTDi) ratio was calculated; VTDi corresponds to the tumor volume the day of treatment initiation and VTDx corresponds to the tumor volume on each measurement day for each mouse.

several cancerous cells = settings: cited from earlier work
[6] = mice, intravenous route; cited from earlier work
[7] = tested on: large panel of tumor cells; settings: in vitro; cited from earlier work
rhabdomyosarcoma = settings: murine model of rhabdomyosarcoma; cited from earlier work
[8] = IFO 100 and 150 mg/kg, CD3ε and CD28 co-stimulation

For `O=P1(NCCCl)OCCCN1CCCl` (stereo not drawn) [IFO, ifosfamide], the improved disease-free survival (osteosarcoma; children previously treated with conventional chemotherapy) is listed as 30 % of patients, the “severe nephrotoxicity, share of patients” value (osteosarcoma) is listed as “a quarter” and the T cell counts (T cells; IFO 100 and 150 mg/kg) is listed as “no T cell counts decrease”. For the same compound, the T cell counts (T cells; IFO higher doses (200 and 300 mg/kg)) was “T cell counts diminution”, the “B cell depletion in the spleen” value (B cells) was “Dose-dependent B cell depletion” and the efficacy [1] was “effective”. The toxicities [1] was “major toxicities”, the tumor growth ([2]; IFO 150 mg/kg single i.p., non-depleted mice) was “Significant reduction of the tumor growth” and the antitumor effect ([2]; IFO 150 mg/kg, CD4+ T cells and CD8+ T cells depleted mice) was “decrease of the antitumor effect”. For the same compound, the antitumor efficacy ([2]; IFO 150 mg/kg, mice depleted with both CD4+ and CD8+ T cells) was “completely abolished”, the “TCR-driven IL-6 compared to CPA 100 mg/kg” value ([3]; IFO 150 mg/kg) was “more” and the “TCR-driven IL-17 compared to CPA 100 mg/kg” value ([3]; IFO 150 mg/kg) was “more”. For the same compound, the “TCR-driven IFNγ” value [3, 8] was “significant secretion”, the “TCR-driven IL-6” value [3, 8] was “significant secretion” and the “TCR-driven IL-17A” value [3, 8] was “significant secretion”. The “TCR-driven IFNγ” value ([3]; IFO 200 and 300 mg/kg) was “failed to induce”, the “TCR-driven IL-6” value ([3]; IFO 200 and 300 mg/kg) was “remained highly secreted” and the “TCR-driven IL-17A” value ([3]; IFO 200 and 300 mg/kg) was “failed to induce”. For the same compound, the “TCR-driven IFNγ” value [4] was “significant increase”, the “TCR-driven IL-6” value [4] was “significant increase” and the “TCR-driven IL-17A” value [4] was “significant increase”. The tumor growth ([5]; IFO 100, 150, 200 and 300 mg/kg) was “delay of tumor growth”.

For `CC(C)=CCC/C(C)=C/CC/C(C)=C/CC/C=C(\C)CC/C=C(\C)CCC(=O)NCCSC1CCOP(=O)(NCCCl)N1CCCl` (stereo not drawn) [SQ-thio-IFO], the cytotoxicity (several cancerous cells) is given as “display cytotoxicity”.

For `CC(C)=CCC/C(C)=C/COC1CCOP(=O)(NCCCl)N1CCCl` (stereo not drawn) [G-IFO, geranyloxy-Ifosfamide], the “conversion into 4-hydroxy-ifosfamide metabolite” value [6] is listed as “rapidly converted”, the T cell depletion (T cells; G-IFO eq. 150 mg/kg) is listed as “induced T cell depletion” and the “B cell depletion in the spleen” value (B cells) is listed as “Dose-dependent B cell depletion”. The B cells population (B cells; G-IFO low dose eq. 100 mg/kg, i.p.) was “very affected”, the cytotoxicity [7] was “cytotoxic” and the tumor growth (rhabdomyosarcoma) was “prevent tumor growth”. For the same compound, the “IFNγ secretion (Th1 polarization)” value ([3]; G-IFO eq. 100 mg/kg) was “favored IFNγ secretion; also recorded: increase”, the IL-6 secretion ([3]; G-IFO eq. 100 mg/kg) was “increase” and the IFNγ secretion ([3]; G-IFO eq. 150 mg/kg) was “poor secretion of IFNγ”. The IL-6 secretion ([3]; G-IFO eq. 150 mg/kg) was “high levels of IL-6”, the IL-17 secretion ([3]; escalating doses of G-IFO) was “No significant IL-17 secretion” and the tumor growth ([5]; G-IFO eq. 100 mg/kg) was “able to delay tumor growth; also recorded: showed an antitumoral activity; also recorded: delayed tumor-growth”. The “tumor growth delay compared to CPA 100 mg/kg” value ([5]; G-IFO eq. 100 mg/kg, FIG. 2D) was “lower tumor growth delay”.

For `CC(C)=CCC/C(C)=C/CC/C(C)=C/CC/C=C(\C)CC/C=C(\C)CCCOC1CCOP(=O)(NCCCl)N1CCCl` (stereo not drawn) [SQ-IFO], the cytotoxicity (several cancerous cells) is listed as “display cytotoxicity”.

With `O=P1(N(CCCl)CCCl)NCCCO1` (stereo not drawn) [CPA, Cyclophosphamide] the “B cell depletion in the spleen” value (B cells) was “Dose-dependent B cell depletion”, the “TCR-driven IFNγ” value [4] was “significantly increased” and the “TCR-driven IL-6” value [4] was “significantly increased”. The “TCR-driven IL-17A” value [4] was “significantly increased” and the tumor growth ([5]; CPA 100 mg/kg) was “Significant reduction of the tumor growth”.
